Reference: patent publication US8410309B2, “Phenoxy carboxylic acid compounds and compositions for delivering active agents” (Emisphere Technologies, Inc., priority 1999, dated 2013)
Where “and” joins values, the source holds several entries; their conditions need not be identical. Identical values can stand only once.

Tests used:
[1] = Salmon calcitonin (sCT) oral delivery, serum sCT by EIA; conditions: rats, delivery agent compound dose 150 mg/kg, sCT dose 30 μg/kg
Procedure: Oral dosing (PO) compositions of a delivery agent compound and salmon calcitonin (sCT) in deionized water were prepared as described in Table 2 below. […] Either the sodium salt of the compound was used or the free acid was converted to the sodium salt by stirring the resultant solution and adding one equivalent of sodium hydroxide (1.0 N) and diluting with water. The solution was vortexed, then heated (about 37° C.) and sonicated. The pH was adjusted to about 7 (about 6.5 to 8.5) with NaOH or HCl. 90 μg sCT from a sCT stock solution (2 mg/ml made by adding 10001 pH 4 phosphate buffer to sCT and allowing it to go into solution by sitting for about 10-20 minutes and periodically gently inverting) was added to the solution.
The typical dosing and sampling protocols were as follows. Male Sprague-Dawley rats weighing between 200-250 g were fasted for 24 hours and administered ketamine (44 mg/kg) and chlorpromazine (1.5 mg/kg) 15 minutes prior to dosing and again as needed to maintain anesthesia. A dosing group of five animals was administered one of the dosing solutions. For oral dosing, an 11 cm Rusch 8 French catheter was adapted to a 1 ml syringe with a pipette tip. The syringe was filled with dosing solution by drawing the solution through the catheter, which was then wiped dry. The catheter was placed down the esophagus leaving 1 cm of tubing past the incisors. Solution was administered by pressing the syringe plunger.
Blood samples were collected serially from the tail artery, typically at time=0, 10, 20, 30, 60 and 90 minutes. […] Numbers were adjusted according to baseline values obtained at time=0. The results from the animals in each dosing group were averaged for each time point.

[2] = Recombinant human growth hormone (rhGH) oral delivery, serum rhGH by immunoassay; conditions: oral gavage, rats; delivery agent compound 200 mg/kg, rhGH 3 mg/kg, volume dose 1 ml
[3] = Heparin oral/intracolonic delivery, clotting time by activated partial thromboplastin time (APTT); format: in vivo, Sprague-Dawley rats; conditions: IC (intracolonic), rats; delivery agent compound 50 mg/kg, heparin 25 mg/kg, volume dose 1 ml; baseline about 20 seconds
Procedure: Oral gavage (PO) and/or intracolonic (IC) dosing solutions containing a delivery agent compound and heparin sodium USP were prepared in 25% aqueous propylene glycol. […] This dry mixture was dissolved in 25% v/v aqueous propylene glycol, vortexed, and placed in a sonicator (about 37° C.). The pH was adjusted to about 7 (6.5 to 8.5) with aqueous NaOH (2N). The dosing solution was sonicated to produce a clear solution. The final volume was adjusted to about 3.0 ml.
(§1) The typical dosing and sampling protocols were as follows. […] The dosing solution was expressed slowly into the colon by pressing the syringe plunger.
Citrated blood samples were collected by cardiac puncture following the administration of ketamine (88 mg/kg), typically at 0.25, 0.5, 1.0 and 1.5 hours after dosing. Heparin absorption was verified by an increase in clotting time measured by the activated partial thromboplastin time (APTT) according to the method of Henry, J. B., Clinical Diagnosis and Management by Laboratory Methods, Philadelphia, Pa., W.B. Saunders (1979). Previous studies indicated baseline values of about 20 seconds.

[4] = Low molecular weight heparin (LMWH) oral/intracolonic delivery, plasma LMWH by anti-Factor Xa assay; format: in vivo, Sprague-Dawley rats; conditions: IC, rats, delivery agent compound 50 mg/kg, LMWH 750 IU/kg, 1 ml/kg
Procedure: Oral dosing (PO) and/or intracolonic (IC) compositions containing a delivery agent compound and low molecular weight heparin (LMWH) were prepared in 25% aqueous propylene glycol. […] Typically, the delivery agent compound and LMWH (Parnaparin, 91 IU/mg average molecular weight about 5,000, available from Opocrin, Modena, Italy) (typically 90-105 IU/mg, average molecular weight about 5,000) were mixed by vortex as dry powders. This dry mixture was dissolved in 25% v/v aqueous propylene glycol, vortexed, and placed in a sonicator (37° C.) to produce a clear solution. The pH was adjusted to about 7 (6.5-8.5) with 2N aqueous NaOH. The dosing solution was sonicated to produce a clear solution. The final volume was adjusted to 3.0 ml.
as §1
Citrated blood samples were collected by cardiac puncture following the administration of ketamine (88 mg/kg), typically at 0.5, 1.0, 2.0, 3.0 and 4.0 hours after dosing. LMWH absorption was verified by an increase in plasma LMWH measured by the anti-Factor Xa assay CHROMOSTRATE™ Heparin anti-Xa assay (available from Organon Teknika Corporation, Durham, N.C.). […] The peak of these mean plasma LMWH concentrations is reported below in Table 5.

[5] = Insulin oral delivery, serum human insulin by ELISA; conditions: rats
Procedure: Oral dosing (PO) compositions of delivery agent compound and human zinc insulin (minimum 26 IU/mg available from Calbiochem—Novabiochem Corp, La Jolla, Calif.) were prepared in deionized water. […] The pH was adjusted to about 7 to 8.5 with NaOH or HCl. […] The final delivery agent compound dose, insulin dose and dose volume amounts are listed below in Table 8.
The typical dosing and sampling protocols were as follows.
Serum insulin levels were determined with an Insulin ELISA Test Kit (Kit # DSL-10-1600 from Diagnostic Systems Laboratories, Inc., Webster, Tex.), modifying the standard protocol in order to optimize the sensitivity and linear range of the standard curve for the volumes and concentrations of the samples used in the present protocol. […] The five values for each time point were averaged and the results plotted as serum insulin concentration versus time.

[6] = delivery agent compound 200 mg/kg, insulin 0.5 mg/kg, 1 ml/kg
[7] = delivery agent compound 200 mg/kg, insulin 3 mg/kg, 1 ml/kg
[8] = delivery agent compound 100 mg/kg, insulin 3 mg/kg, 0.5 ml/kg

COc1cccc(OCCCCCCCC(=O)O)c1C(C)=O [Compound 39]
Mean Peak Serum sCT (pg/ml ± SD) (SE) ([1]; dose volume 1 (ml), 150 mg/kg): 115 ± 120 pg/mL and 115 ± 178 pg/mL | Mean Peak Serum [rhGH] [2]: 0 ng/mL

CNC(=O)c1ccccc1OCCCCCCCCCC(=O)O [Compound 51]
Mean Peak APTT ± SD [3]: 92.5 ± 41.5 s

NC(=O)c1ccccc1OCc1ccc(C(=O)O)cc1 [Compound 52]
Mean Peak Serum sCT (pg/ml ± SD) (SE) ([1]; dose volume 1 (ml)): 163 ± 300 pg/mL | Mean Peak Serum [rhGH] [2]: 0 ng/mL

CC(=O)c1ccccc1OCCCCCCCCCC(=O)O [Compound 54]
Mean Peak APTT ± SD [3]: 31.56 ± 7.54 s | Mean Peak Plasma LMWH Concentration ± SD [4]: 3.046 ± 0.422 IU/ml | Mean Peak Serum sCT (pg/ml ± SD) (SE) ([1]; dose volume 1 (ml)): 34 ± 47 pg/mL | Mean Peak Serum [rhGH] [2]: 6.37 ng/mL

COc1ccc(OCCCCCCCC(=O)O)c(C(C)=O)c1 [Compound 55]
Mean Peak Serum [rhGH] [2]: 12.4 ng/mL

COc1ccc(C(C)=O)c(OCCCCCCCC(=O)O)c1 [Compound 56]
Mean Peak Serum sCT (pg/ml ± SD) (SE) ([1]; dose volume 1 (ml), 150 mg/kg): 165 ± 243 pg/mL and 90 ± 125 pg/mL and 113 ± 115 pg/mL and 175 ± 150 pg/mL | Mean Peak Serum [rhGH] [2]: 0 ng/mL

O=Cc1ccccc1OCc1ccc(C(=O)O)cc1 [Compound 59]
Mean Peak Serum [INS] ± SD [5, 6]: 315.53 ± 154.56 μU/ml

O=Cc1ccccc1OCCCCCC(=O)O [Compound 60]
Mean Peak Serum [rhGH] [2]: 1.5 ± 3.3 ng/mL

CC(=O)c1ccc(OCCCCCCCC(=O)O)cc1 [Compound 62]
Mean Peak APTT ± SD [3]: 152.41 ± 136.63 s and 91.204 ± 117.43 s | Mean Peak Serum sCT (pg/ml ± SD) (SE) ([1]; dose volume 1 (ml)): 117 ± 158 pg/mL | Mean Peak Serum [rhGH] [2]: 6.2 ng/mL

CC(=O)c1cccc(OCCCCCCCC(=O)O)c1 [Compound 64]
Mean Peak APTT ± SD [3]: 220.988 ± 122.2 s and 125.372 ± 114.72 s | Mean Peak Serum sCT (pg/ml ± SD) (SE) ([1]; dose volume 1 (ml)): 138 ± 148 pg/mL | Mean Peak Serum [rhGH] [2]: 5 ng/mL

O=C(O)c1ccc(COc2ccccc2)cc1 [Compound 66]
Mean Peak Plasma LMWH Concentration ± SD ([4]; 50 mg/kg): 0.952 IU/ml and 1.114 ± 0.254 IU/ml | Mean Peak Serum sCT (pg/ml ± SD) (SE) ([1]; dose volume 4 (ml)): 109 ± 244 pg/mL | Mean Peak Serum [rhGH] [2]: 0 ng/mL

O=C(O)CCCCCCCOc1cccc(Cl)c1 [Compound 68]
Mean Peak Serum [INS] ± SD [5, 7]: 76.23 ± 76.88 μU/ml

O=C(O)CCCCCCCCCCOc1ccccc1O [Compound 72]
Mean Peak Serum [INS] ± SD [5, 7]: 4702.5 ± 4700.4 μU/ml | Mean Peak Serum [rhGH] [2]: 28 ng/mL

O=C(O)CCCCCCCOc1ccccc1Cl [Compound 73]
Mean Peak Serum [INS] ± SD [5, 8]: 147.66 ± 176.71 μU/ml

O=C(O)CCCCCCCOc1cc([N+](=O)[O-])ccc1O [Compound 74]
Mean Peak Serum [INS] ± SD [5, 8]: 70.69 ± 127.89 μU/ml

O=C(O)CCCCOc1ccccc1F [Compound 75]
Mean Peak Serum [INS] ± SD [5, 6]: 33.88 ± 38.49 μU/ml and 32.54 ± 19.78 μU/ml

O=C(O)CCCCOc1ccccc1C(F)(F)F [Compound 76]
Mean Peak Serum [INS] ± SD [5, 6]: 24.72 ± 25.53 μU/ml and 38.74 ± 74.4 μU/ml

O=C(O)c1ccc(C(O)COc2ccccc2O)cc1 (stereo not shown) [Compound 79]
Mean Peak Serum sCT (pg/ml ± SD) (SE) ([1]; dose volume 1 (ml)): 133 ± 90 pg/mL
